Molecules are shown by their SMILES.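 1) Cells in 96-well plates. 2) Compound, 48 h, 5 concentrations. 3) Linear interpolation between surrounding doses. 4) Unreached endpoint = highest concentration. GI50 = concentration required for 50% inhibition of growth. At the TGI there is no net growth.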 Some results are limits rather than exact numbers.

One assay has as its system HL-60(TB) leukemia. The assay can be described thus: growth of human tumour cells (NCI), 48 h.
Turning to `COC1(OC)CC2C(=O)N(Cc3ccccc3)C1C=C2S(=O)(=O)c1ccccc1` (centres undefined), the TGI is 36.7 µM.
Consider `CC(=O)[O][Ga]([Br])[O]C(C)=O`, for which the GI50 is over 100 µM and the TGI was over 100 µM.
With `COc1cc2c(OC)cc1CSCc1sc(C)c(c1Br)CSC2`, the TGI is over 100 µM.
Still for that read-out and setting: for `CC(C)N(C(=O)C12C3C4C1(I)C1C2C3(I)C41C(=O)N(C(C)C)C(C)C)C(C)C` (centres undefined) the value was over 61.3 µM; for `Cc1cccc(C)c1NC(=O)C(=O)C(C(=O)c1ccccc1-c1ccccc1)C1OC(=O)c2ccccc21` (centres undefined), 88.9 µM.
Still for that read-out and setting: the value for `CC1COC(C)(C)P(=O)(c2ccccc2)C1` (centres undefined) was over 100 µM; that for `Cc1ccc(S(=O)(=O)c2ccc(N)cc2)cc1` was over 100 µM; that for `CCOP(=O)(OCC)OC1C=CC2CCC1C2` (centres undefined) was over 100 µM.
On the same count and under the same terms, the value for `COC(=O)[C@H]1C=C[C@@H](C)n2c(=O)c3cc4ccccc4cc3c(=O)n21` was over 100 µM.
In turn, `COc1cc(C=O)c(-c2cc(OC)c(OC)cc2C=O)cc1OC` registered a TGI of over 100 µM.
Still for that read-out and setting: the value for `N#CC(C(=O)C(=O)Nc1ccc(Cl)cc1)c1ccccc1` (centres undefined) was over 100 µM.
With `COc1cc(C(=O)N2CCN(c3ncccn3)CC2)c(N)cc1OCc1ccccc1`, the GI50 is over 100 µM and the TGI was over 100 µM.
On to `COc1c[c]([Hg][O]C(C)=O)c(OC)c(NC(=O)CC(C)=O)[c]1[Hg][O]C(C)=O`, for which the GI50 is 2.41 µM and the TGI came to 5.35 µM.
With `COC(=O)/C=C1\CCC(C)O1` (centres undefined), the TGI is over 100 µM.
In turn, `O=C(/C=C/c1ccccc1Cl)NC1C=Nc2ccc([N+](=O)[O-])cc2NC1` (centres undefined) showed a TGI of over 100 µM.
Still for that read-out and setting: for `Cc1ccc(C)c(N=C2NC(=O)C(CC(=O)Nc3ccc(Cl)cc3Cl)S2)c1` (centres undefined) the value was over 100 µM.
As to `C/C(CC(=O)Nc1cccc(Cl)c1C)=N\NC(=O)c1ccncc1`, the TGI was over 100 µM.
On the same count and under the same terms, the value for `Cc1cc(NS(=O)(=O)c2ccc(Nc3c4ccccc4nc4c(C(=O)N5CCN(CCO)CC5)ccc(Cl)c34)cc2)no1` was over 100 µM.
With `COc1ccc(-c2ccc(-c3ccc(C(=N)N)s3)s2)cc1`, the GI50 is 0.208 µM and the TGI came out at 0.423 µM.
The compound `Cc1nc([N+](=O)[O-])cn1CC(=N)N` gave a TGI of over 100 µM.
On the same count and under the same terms, for `COC(=O)/C=C/c1c(CC=C(C)C)ncn1C` the value was 31.6 µM.
The same measure, in the same setting: for `CC(C)C(=O)Nc1nc2c(ncn2C2OC(CO)C(O)C2O)c(=O)[nH]1` (centres undefined) the value was over 100 µM.
On the same count and under the same terms, the value for `O=S(=O)(c1ccccc1)C1CN2OC1(S(=O)(=O)c1ccccc1)CC2c1ccc(Br)cc1` (centres undefined) was over 100 µM.
Turning to `O=Cc1ccc2c(c1-c1c(C=O)ccc3c1OCO3)OCO2`, the TGI was over 100 µM.
On the same count and under the same terms, the value for `CC(=O)O[C@H]1CCC2[C@@H]3CCC4Nc5[nH]ncc5C[C@]4(C)C3CC[C@@]21C` (some centres undefined) was 42.5 µM; that for `Cc1cc(C)nc(NS(=O)(=O)c2ccc(NC(=O)c3cccc4c(Nc5ccc(S(N)(=O)=O)cc5)c5ccccc5nc34)cc2)n1` was 29.6 µM.
Still for that read-out and setting: for `Cc1cc(S(=O)(=O)O)c(NC(=O)C(=O)Cc2cc(=O)oc3cc(O)ccc23)cc1Cl` the value was over 100 µM.

The next assay concerns HOP-62 NSCLC. The assay can be described thus: growth of human tumour cells (NCI), 48 h.
Regarding `CC(C)C(=O)NS(=O)(=O)c1ccccc1`, the TGI was over 100 µM.
On the same count and under the same terms, the value for `COC1(OC)CC2C(=O)N(Cc3ccccc3)C1C=C2S(=O)(=O)c1ccccc1` (centres undefined) was over 100 µM; that for `COc1cc2c(OC)cc1CSCc1sc(C)c(c1Br)CSC2` was over 100 µM.
Same read-out and setting: the value for `CC(C)N(C(=O)C12C3C4C1(I)C1C2C3(I)C41C(=O)N(C(C)C)C(C)C)C(C)C` (centres undefined) was over 100 µM; that for `Cc1cccc(C)c1NC(=O)C(=O)C(C(=O)c1ccccc1-c1ccccc1)C1OC(=O)c2ccccc21` (centres undefined) was 35.7 µM; that for `CC1COC(C)(C)P(=O)(c2ccccc2)C1` (centres undefined) was over 100 µM.
Still for that read-out and setting: for `Cc1ccc(S(=O)(=O)c2ccc(N)cc2)cc1` the value was over 100 µM; for `CCOP(=O)(OCC)OC1C=CC2CCC1C2` (centres undefined), over 100 µM; for `COC(=O)[C@H]1C=C[C@@H](C)n2c(=O)c3cc4ccccc4cc3c(=O)n21`, over 100 µM.
Consider `COc1cc(C=O)c(-c2cc(OC)c(OC)cc2C=O)cc1OC`, for which the TGI was over 100 µM.
Still for that read-out and setting: the value for `N#CC(C(=O)C(=O)Nc1ccc(Cl)cc1)c1ccccc1` (centres undefined) was over 100 µM.
Turning to `COc1c[c]([Hg][O]C(C)=O)c(OC)c(NC(=O)CC(C)=O)[c]1[Hg][O]C(C)=O`, the GI50 is 20 µM and the TGI came to 34.4 µM.
In turn, `COC(=O)/C=C1\CCC(C)O1` (centres undefined) yielded a TGI of over 100 µM.
On the same count and under the same terms, the value for `O=C(/C=C/c1ccccc1Cl)NC1C=Nc2ccc([N+](=O)[O-])cc2NC1` (centres undefined) was over 100 µM; that for `CCCO/S(=N\S(=O)(=O)c1ccccc1)c1ccccc1[N+](=O)[O-]` (centres undefined) was over 100 µM; that for `Cc1ccc(C)c(N=C2NC(=O)C(CC(=O)Nc3ccc(Cl)cc3Cl)S2)c1` (centres undefined) was over 100 µM.
Still for that read-out and setting: for `C/C(CC(=O)Nc1cccc(Cl)c1C)=N\NC(=O)c1ccncc1` the value was over 100 µM; for `Cc1cc(NS(=O)(=O)c2ccc(Nc3c4ccccc4nc4c(C(=O)N5CCN(CCO)CC5)ccc(Cl)c34)cc2)no1`, over 100 µM.
On to `COc1ccc(-c2ccc(-c3ccc(C(=N)N)s3)s2)cc1`, for which the GI50 was 0.214 µM and the TGI amounted to 0.446 µM.
The compound `Cc1nc([N+](=O)[O-])cn1CC(=N)N` yielded a TGI of over 100 µM.
Same read-out and setting: for `COC(=O)/C=C/c1c(CC=C(C)C)ncn1C` the value was over 100 µM.
Still for that read-out and setting: the value for `CC(C)C(=O)Nc1nc2c(ncn2C2OC(CO)C(O)C2O)c(=O)[nH]1` (centres undefined) was over 100 µM.
In turn, `O=S(=O)(c1ccccc1)C1CN2OC1(S(=O)(=O)c1ccccc1)CC2c1ccc(Br)cc1` (centres undefined) registered a TGI of over 100 µM.
Same read-out and setting: the value for `O=Cc1ccc2c(c1-c1c(C=O)ccc3c1OCO3)OCO2` was over 100 µM; that for `CC(=O)O[C@H]1CCC2[C@@H]3CCC4Nc5[nH]ncc5C[C@]4(C)C3CC[C@@]21C` (some centres undefined) was over 100 µM; that for `Cc1cc(C)nc(NS(=O)(=O)c2ccc(NC(=O)c3cccc4c(Nc5ccc(S(N)(=O)=O)cc5)c5ccccc5nc34)cc2)n1` was 98.8 µM.
On the same count and under the same terms, for `Cc1cc(S(=O)(=O)O)c(NC(=O)C(=O)Cc2cc(=O)oc3cc(O)ccc23)cc1Cl` the value was over 100 µM.

The subject of another assay is NCI-H23 lung. The assay can be described thus: growth of human tumour cells (NCI), 48 h.
Regarding `CC(C)C(=O)NS(=O)(=O)c1ccccc1`, the TGI was over 100 µM.
The same measure, in the same setting: the value for `COC1(OC)CC2C(=O)N(Cc3ccccc3)C1C=C2S(=O)(=O)c1ccccc1` (centres undefined) was 38.1 µM.
Take `CC(=O)[O][Ga]([Br])[O]C(C)=O`: the GI50 is over 100 µM and the TGI is over 100 µM.

The record behind these values is PubChem BioAssay (NCI).
